Key:
C-RAF = molecular target: T1, C-RAF (Homo sapiens, UniProt P04049, Y340E/Y341E); assay: In vitro Raf activity determination (Alpha Screen, biotinylated kinase-dead MEK1 substrate), C-Raf; format: biochemical; conditions: c-Raf approximately 4 nM; ATP 1 μM; pre-incubation 60 minutes; reaction 1 hour at room temperature
T1 construct: His tag (implied by nickel chromatography) (cleaved yes); StrepII tag (cleaved yes); made in house; host or cells: Sf9 insect cells (baculovirus), CRAF and h14-3-3 zeta co-expressed; MEK1 substrate from E. coli
In short: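 AlphaScreen read-out of MEK phosphorylation using an anti-phospho-MEK1/2 antibody after a 1 hour room-temperature reaction at 1 μM ATP. Enzyme: approximately 4 nM Sf9-expressed full-length activated C-Raf (Y340E/Y341E, with 14-3-3ζ) on approximately 10 nM biotinylated K97R MEK1, after 60 min compound preincubation. IC50 by non-linear fit.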

b-Raf (V600E) = molecular target: T2, b-Raf (V600E) (Homo sapiens, UniProt P15056, V600E); assay: In vitro Raf activity determination (Alpha Screen, biotinylated kinase-dead MEK1 substrate), B-Raf; format: biochemical; conditions: b-Raf (V600E) approximately 4 pM; ATP 10 μM; pre-incubation 60 minutes; reaction 3 hours at room temperature
T2 construct: made in house
In short: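 IC50 from non-linear regression of AlphaScreen phospho-MEK signal (anti-p-MEK1/2 antibody). b-Raf(V600E), about 4 pM, phosphorylated ~10 nM biotinylated K97R MEK1 with 10 μM ATP for 3 h at room temperature after 60 min compound pre-incubation; buffer pH 7.5 Tris, 15 mM MgCl2, 1 mM DTT.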

T2 sequence (P15056 whole entry V600E): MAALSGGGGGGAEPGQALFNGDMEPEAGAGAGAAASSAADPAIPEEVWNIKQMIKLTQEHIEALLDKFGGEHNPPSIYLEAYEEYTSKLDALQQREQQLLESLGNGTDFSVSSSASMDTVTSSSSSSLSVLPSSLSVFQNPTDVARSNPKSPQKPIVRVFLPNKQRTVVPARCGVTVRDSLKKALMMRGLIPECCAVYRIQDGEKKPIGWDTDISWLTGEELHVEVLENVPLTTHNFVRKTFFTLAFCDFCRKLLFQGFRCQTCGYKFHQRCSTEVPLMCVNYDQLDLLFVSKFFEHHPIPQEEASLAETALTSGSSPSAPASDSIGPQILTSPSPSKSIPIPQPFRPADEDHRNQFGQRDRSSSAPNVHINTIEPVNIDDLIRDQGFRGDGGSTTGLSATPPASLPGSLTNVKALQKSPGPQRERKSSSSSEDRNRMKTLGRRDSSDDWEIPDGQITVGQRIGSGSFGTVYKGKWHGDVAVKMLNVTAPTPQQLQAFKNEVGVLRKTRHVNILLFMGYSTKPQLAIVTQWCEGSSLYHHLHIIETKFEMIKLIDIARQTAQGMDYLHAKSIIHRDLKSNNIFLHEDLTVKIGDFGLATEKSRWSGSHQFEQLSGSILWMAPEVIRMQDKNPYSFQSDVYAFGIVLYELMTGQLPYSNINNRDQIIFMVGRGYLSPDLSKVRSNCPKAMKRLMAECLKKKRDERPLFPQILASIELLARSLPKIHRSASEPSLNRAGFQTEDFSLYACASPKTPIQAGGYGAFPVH
T1 sequence (P04049 whole entry Y340E/Y341E): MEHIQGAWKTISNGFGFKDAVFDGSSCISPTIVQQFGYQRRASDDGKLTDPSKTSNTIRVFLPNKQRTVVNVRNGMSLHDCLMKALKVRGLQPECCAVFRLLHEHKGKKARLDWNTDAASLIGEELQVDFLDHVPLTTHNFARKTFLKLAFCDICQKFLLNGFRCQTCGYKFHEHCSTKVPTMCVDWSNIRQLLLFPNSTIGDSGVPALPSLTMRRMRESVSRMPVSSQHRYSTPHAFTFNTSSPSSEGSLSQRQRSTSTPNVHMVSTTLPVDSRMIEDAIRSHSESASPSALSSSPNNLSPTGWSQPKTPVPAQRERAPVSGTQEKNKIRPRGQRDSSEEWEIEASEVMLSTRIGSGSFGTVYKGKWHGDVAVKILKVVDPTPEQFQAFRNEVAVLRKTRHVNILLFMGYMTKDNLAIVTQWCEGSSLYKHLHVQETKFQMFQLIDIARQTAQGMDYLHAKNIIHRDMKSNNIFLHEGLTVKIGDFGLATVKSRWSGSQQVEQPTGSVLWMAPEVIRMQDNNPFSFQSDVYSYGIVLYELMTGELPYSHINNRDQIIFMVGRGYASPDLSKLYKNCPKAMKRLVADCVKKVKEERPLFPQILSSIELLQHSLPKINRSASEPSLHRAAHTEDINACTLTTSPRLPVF
T1 sequence (P63104 whole entry partner): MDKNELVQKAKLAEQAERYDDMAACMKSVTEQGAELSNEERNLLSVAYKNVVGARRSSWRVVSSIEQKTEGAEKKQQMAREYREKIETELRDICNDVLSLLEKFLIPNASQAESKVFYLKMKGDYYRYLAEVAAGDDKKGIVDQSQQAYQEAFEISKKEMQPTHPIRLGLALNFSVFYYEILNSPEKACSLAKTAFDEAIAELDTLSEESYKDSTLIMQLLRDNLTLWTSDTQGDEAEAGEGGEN

IC50 (C-RAF)	IC50 (b-Raf (V600E))	Compound
0.539 nM	3.18 nM	Cc1ncc(NC(=O)c2cc(C(C)(C)F)ccn2)cc1-c1cnc(N2CCOCC2)c(C#N)c1 [Example 242, N-(5′-cyano-2-methyl-6′-morpholino-[3,3′-bipyridin]-5-yl)-4-(2-fluoropropan-2-yl)picolinamide]
1.03 nM	9.83 nM	Cc1ncc(NC(=O)c2cc(C(C)(C)F)ccn2)cc1-c1cnc(N2CC(C)(O)C2)c(C#N)c1 [Example 243, N-(5′-cyano-6′-(3-hydroxy-3-methylazetidin-1-yl)-2-methyl-[3,3′-bipyridin]-5-yl)-4-(2-fluoropropan-2-yl)picolinamide]
0.876 nM	7.18 nM	Cc1ccc(NC(=O)c2cc(C(C)(C)F)ccn2)cc1-c1cnc(N2CC(C)(O)C2)c(C#N)c1 [Example 244, N-(3-(5-cyano-6-(3-hydroxy-3-methylazetidin-1-yl)pyridin-3-yl)-4-methylphenyl)-4-(2-fluoropropan-2-yl)picolinamide]
0.533 nM	3.24 nM	Cc1ccc(NC(=O)c2cc(C(C)(C)F)ccn2)cc1-c1cnc(N2CCOCC2)c(C#N)c1 [Example 245, N-(3-(5-cyano-6-morpholinopyridin-3-yl)-4-methylphenyl)-4-(2-fluoropropan-2-yl)picolinamide]
1.85 nM	7.67 nM	Cc1ncc(NC(=O)c2cc(C(C)(C)N)cc(C(F)(F)F)c2)cc1-c1cnc(N2CCOCC2)c(C#N)c1 [Example 246, 3-(2-aminopropan-2-yl)-N-(5′-cyano-2-methyl-6′-morpholino-[3,3′-bipyridin]-5-yl)-5-(trifluoromethyl) benzamide]
4.96 nM	30.7 nM	Cc1ncc(NC(=O)c2cc(C(C)(C)N)cc(C(F)(F)F)c2)cc1-c1cnc(N2CC(C)(O)C2)c(C#N)c1 [Example 247, 3-(2-aminopropan-2-yl)-N-(5′-cyano-6′-(3-hydroxy-3-methylazetidin-1-yl)-2-methyl-[3,3′-bipyridin]-5-yl)-5-(trifluoromethyl) benzamide]
2.02 nM	10.6 nM	Cc1ccc(NC(=O)c2cc(C(C)(C)N)cc(C(F)(F)F)c2)cc1-c1cnc(N2CC(C)(O)C2)c(C#N)c1 [Example 248, 3-(2-aminopropan-2-yl)-N-(3-(5-cyano-6-(3-hydroxy-3-methylazetidin-1-yl)pyridin-3-yl)-4-methylphenyl)-5-(trifluoromethyl) benzamide]
0.653 nM	2.54 nM	Cc1ccc(NC(=O)c2cc(C(C)(C)N)cc(C(F)(F)F)c2)cc1-c1cnc(N2CCOCC2)c(C#N)c1 [Example 249, 3-(2-aminopropan-2-yl)-N-(3-(5-cyano-6-morpholinopyridin-3-yl)-4-methylphenyl)-5-(trifluoromethyl) benzamide]
0.401 nM	1.96 nM	CCn1cc(C(=O)Nc2ccc(C)c(-c3cnc(N(C)C)c(C#N)c3)c2)cc(C(F)(F)F)c1=O [Example 250, N-(3-(5-cyano-6-(dimethylamino)pyridin-3-yl)-4-methylphenyl)-1-ethyl-6-oxo-5-(trifluoromethyl)-1,6-dihydropyridine-3-carboxamide]
7.28 nM	59.7 nM	CCn1cc(C(=O)Nc2ccc(C)c(-c3cnc(N(C)C)c(C#N)c3)c2)c(C)n1 [Example 251, N-(3-(5-cyano-6-(dimethylamino)pyridin-3-yl)-4-methylphenyl)-1-ethyl-3-methyl-1H-pyrazole-4-carboxamide]
17.6 nM	196 nM	Cc1ccc(NC(=O)c2cn(C)nc2C)cc1-c1cnc(N(C)C)c(C#N)c1 [Example 252, N-(3-(5-cyano-6-(dimethylamino)pyridin-3-yl)-4-methylphenyl)-1,3-dimethyl-1H-pyrazole-4-carboxamide]
2.5 nM	16.5 nM	Cc1ccc(NC(=O)c2cn(C(C)C)nc2C)cc1-c1cnc(N(C)C)c(C#N)c1 [Example 253, N-(3-(5-cyano-6-(dimethylamino)pyridin-3-yl)-4-methylphenyl)-1-isopropyl-3-methyl-1H-pyrazole-4-carboxamide]
38.4 nM	278 nM	Cc1cc(C(=O)Nc2ccc(C)c(-c3cnc(N(C)C)c(C#N)c3)c2)n(C)n1 [Example 254, N-(3-(5-cyano-6-(dimethylamino)pyridin-3-yl)-4-methylphenyl)-1,3-dimethyl-1H-pyrazole-5-carboxamide]
4.84 nM	35.6 nM	Cc1ccc(NC(=O)c2cc(C3CC3)nn2C)cc1-c1cnc(N(C)C)c(C#N)c1 [Example 255, N-(3-(5-cyano-6-(dimethylamino)pyridin-3-yl)-4-methylphenyl)-3-cyclopropyl-1-methyl-1H-pyrazole-5-carboxamide]
0.353 nM	1.52 nM	Cc1ccc(NC(=O)c2ccnc(C(C)(C)O)c2)cc1-c1cnc(N(C)C)c(C#N)c1 [Example 256, N-(3-(5-cyano-6-(dimethylamino)pyrdin-3-yl)-4-methylphenyl)-2-(2-hydroxypropan-2-yl)isonicotinamide]
1.36 nM	12.9 nM	Cc1cc(CC(=O)Nc2ccc(C)c(-c3cnc(N(C)C)c(C#N)c3)c2)on1 [Example 257, N-(3-(5-cyano-6-(dimethylamino)pyridin-3-yl)-4-methylphenyl)-2-(3-methylisoxazol-5-yl)acetamide]
0.158 nM	1.18 nM	Cc1ccc(NC(=O)c2cc(C(C)C)on2)cc1-c1cnc(N(C)C)c(C#N)c1 [Example 258, N-(3-(5-cyano-6-(dimethylamino)pyridin-3-yl)-4-methylphenyl)-5-isopropylisoxazole-3-carboxamide]
0.435 nM	3.79 nM	Cc1ccc(NC(=O)c2cc(C3CC3)on2)cc1-c1cnc(N(C)C)c(C#N)c1 [Example 259, N-(3-(5-cyano-6-(dimethylamino)pyridin-3-yl)-4-methylphenyl)-5-cyclopropylisoxazole-3-carboxamide]
0.115 nM	0.297 nM	Cc1ccc(NC(=O)c2cccc(S(C)(=O)=O)c2)cc1-c1cnc(N(C)C)c(C#N)c1 [Example 260, N-(3-(5-cyano-6-(dimethylamino)pyridin-3-yl)-4-methylphenyl)-3-(methylsulfonyl) benzamide]
0.106 nM	0.71 nM	Cc1ccc(NC(=O)c2ccnc(S(C)(=O)=O)c2)cc1-c1cnc(N(C)C)c(C#N)c1 [Example 261, N-(3-(5-cyano-6-(dimethylamino)pyridin-3-yl)-4-methylphenyl)-2-(methylsulfonyl) isonicotinamide]
2.16 nM	10.9 nM	Cc1ncc(NC(=O)c2cc(C3CC3)on2)cc1-c1cnc(N(C)C)c(C#N)c1 [Example 262, N-(5′-cyano-6′-(dimethylamino)-2-methyl-[3,3′-bipyridin]-5-yl)-5-cyclopropylisoxazole-3-carboxamide]
55.3 nM	884 nM	CCn1cc(C(=O)Nc2cnc(C)c(-c3cnc(N(C)C)c(C#N)c3)c2)c(C)n1 [Example 263, N-(5′-cyano-6′-(dimethylamino)-2-methyl-[3,3′-bipyridin]-5-yl)-1-ethyl-3-methyl-1H-pyrazole-4-carboxamide]
148 nM	1970 nM	Cc1nn(C)cc1C(=O)Nc1cnc(C)c(-c2cnc(N(C)C)c(C#N)c2)c1 [Example 264, N-(5′-cyano-6′-(dimethylamino)-2-methyl-[3,3′-bipyridin]-5-yl)-1,3-dimethyl-1H-pyrazole-4-carboxamide]

From patent US10392404B2, “Compounds and compositions as kinase inhibitors” (NOVARTIS AG, priority 2014, dated 2019)
